Data: patent publication US10442793B2, “Oxa spiro derivative, preparation method therefor, and applications thereof in medicines” (Jiangsu Hengrui Medicine Co., Ltd., priority 2015, dated 2019)
Where two headings read alike, the source gives them in different places.

Experiments:
Format in all cases: cell-based
μ-opioid receptors (MOR) = molecular target: T1, μ-opioid receptors (MOR) (Homo sapiens, UniProt P35372); experiment: MOR activity test: HEK293/MOR/CRE luciferase reporter, agonizing MOR and affecting downstream cAMP levels; conditions: for Emax: HEK293, maximum effect of TRV-130 is 100%, read-out: Emax on agonizing MOR receptor and affecting cAMP levels
T1 construct: host or cells: HEK293
T1 sequence (P35372 whole entry): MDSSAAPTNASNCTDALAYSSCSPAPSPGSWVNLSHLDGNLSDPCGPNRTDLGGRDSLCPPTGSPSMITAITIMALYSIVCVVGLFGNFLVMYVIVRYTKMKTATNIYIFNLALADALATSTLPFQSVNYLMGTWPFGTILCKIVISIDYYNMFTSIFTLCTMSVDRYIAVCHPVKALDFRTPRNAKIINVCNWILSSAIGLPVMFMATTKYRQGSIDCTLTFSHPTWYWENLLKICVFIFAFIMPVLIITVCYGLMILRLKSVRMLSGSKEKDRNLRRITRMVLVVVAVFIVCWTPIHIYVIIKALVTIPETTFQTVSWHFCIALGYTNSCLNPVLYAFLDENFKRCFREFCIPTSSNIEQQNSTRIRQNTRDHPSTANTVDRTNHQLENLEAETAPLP
From the text: The compounds of the present invention can activate μ-opioid receptors (MOR). Activated MOR can regulate intracellular cAMP levels, and cAMP enters the nucleus and binds to the CRE region of the reporter gene luciferase, thereby initiating the expression of the reporter gene. Luciferase can react with its substrate to emit fluorescence, and the measured fluorescence signals reflect the agonistic activity of the compounds.
The activity of the test example compounds on agonizing MOR and affecting downstream cAMP levels was tested by the following method.
MOR/pcDNA3.1 (+) and CRE/pGL4.29 were transferred into HEK293 cells. G418 and hygromycin were added into the culture medium, and HEK293/MOR/CRE monoclonal cell lines were screened in a 96-well cell culture plate.
HEK293/MOR/CRE monoclonal cells were cultured in a DMEM/high glucose medium (10% FBS, 1 mg/ml G418, 200 μg/ml hygromycin, mixed uniformly), and passaged every 3 days. On the day of the experiment, a cell suspension was prepared with a fresh cell medium, added to a 96 well plate (BD, #356692) with 20,000 cells/well, and incubated in 5% CO2 at 37° C. On the second day, the compound was dissolved in pure DMSO at a concentration of 20 mM, then formulated with DMSO to a first concentration of 4 mM and diluted in 10 fold concentration gradient to 6 concentrations. Then, 90 μl of DMSO was added to blank and control wells. Then, formulated compound was prepared by adding 2.5 μl of the compound solutions formulated in DMSO at a gradient concentration to 97.5 μl of a fresh cell culture medium containing 5 μM foscolin. Then, 10 μl of the formulated compound was added to the cell culture plate to make the final concentration of the compound 10000, 1000, 100, 10, 1, 0.1, or 0.01 nM, and the plate was incubated at 37° C., in 5% CO2 for 5 hours. In a 96-well cell culture plate, 100 μl of luciferase assay solution (Promega, # E6110) was added to each well. The plate was placed in the dark at room temperature for 10-15 minutes, blowed and aspirated 10 times, and 100 μl were pipetted to a 96 well white plate. The chemiluminescence signal values were read in a microplate reader (PE, Victor3), and the read data was processed using software.
The activity of the compounds of the present invention on agonizing MOR and affecting downstream cAMP levels was determined by the above test, and the EC50 values are shown in Table 1.1.

hERG potassium channel = molecular target: T2, hERG potassium channel (Homo sapiens, UniProt Q12809); experiment: Blocking of hERG potassium current, automatic patch clamp on HEK293-hERG cells
T2 construct: expressed in transfected cells; host or cells: HEK293
T2 sequence (Q12809 whole entry): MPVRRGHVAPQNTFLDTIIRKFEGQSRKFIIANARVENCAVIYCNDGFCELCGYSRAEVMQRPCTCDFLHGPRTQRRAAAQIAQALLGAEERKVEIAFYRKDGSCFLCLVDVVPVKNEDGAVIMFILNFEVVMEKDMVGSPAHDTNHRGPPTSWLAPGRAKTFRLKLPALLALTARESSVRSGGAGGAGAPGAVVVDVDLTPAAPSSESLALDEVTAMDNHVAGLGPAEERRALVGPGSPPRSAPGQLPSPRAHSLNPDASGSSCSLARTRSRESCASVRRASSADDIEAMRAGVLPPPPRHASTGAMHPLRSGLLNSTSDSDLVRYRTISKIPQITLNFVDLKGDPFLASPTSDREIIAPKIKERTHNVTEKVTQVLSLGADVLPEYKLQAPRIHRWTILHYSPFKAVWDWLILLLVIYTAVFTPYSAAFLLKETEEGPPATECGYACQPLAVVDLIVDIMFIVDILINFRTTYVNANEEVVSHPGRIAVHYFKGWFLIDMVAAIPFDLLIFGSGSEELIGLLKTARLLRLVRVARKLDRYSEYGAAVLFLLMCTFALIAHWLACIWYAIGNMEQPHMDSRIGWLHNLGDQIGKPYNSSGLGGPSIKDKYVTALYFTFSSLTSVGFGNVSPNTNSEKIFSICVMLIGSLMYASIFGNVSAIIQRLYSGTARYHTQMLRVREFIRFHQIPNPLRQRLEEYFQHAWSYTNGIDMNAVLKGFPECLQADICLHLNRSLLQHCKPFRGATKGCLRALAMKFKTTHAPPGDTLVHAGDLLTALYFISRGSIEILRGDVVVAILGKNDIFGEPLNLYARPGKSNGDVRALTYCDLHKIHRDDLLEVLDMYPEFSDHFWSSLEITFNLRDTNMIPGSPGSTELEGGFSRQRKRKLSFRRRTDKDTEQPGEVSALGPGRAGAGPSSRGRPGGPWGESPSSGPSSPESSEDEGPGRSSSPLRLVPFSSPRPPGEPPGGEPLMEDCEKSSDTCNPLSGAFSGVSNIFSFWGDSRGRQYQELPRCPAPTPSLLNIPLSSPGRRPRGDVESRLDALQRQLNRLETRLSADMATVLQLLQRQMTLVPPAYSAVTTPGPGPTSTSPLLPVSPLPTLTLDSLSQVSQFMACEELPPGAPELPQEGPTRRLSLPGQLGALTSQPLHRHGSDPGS
Description: The blocking effect of the compounds of the present invention and the positive compound TRV-130 (Journal of Pharmacology and Experimental Therapeutics, Volume 344, Issue 3, Pages 708-717, 2013) on hERG potassium current was tested on a stable cell line transfected with hERG potassium channel using an automatic patch clamp.
HEK293-hERG stabilized cells were subcultured at a density of 1:4 in a MEM/EBSS medium (10% FBS, 400 μg/ml G418, 1% MEM nonessential amino acid solution (100×), 1% sodium pyruvate solution) for 48-72 hours, then the automatic patch clamp experiment was performed. The cells were digested with 0.25% trypsin on the day of the experiment, then the cells were collected by centrifugation and resuspended with extracellular fluid (140 mM NaCl, 4 mM KCl, 1 mM MgCl2, 2 mM CaCl2, 5 mM D-glucose monohydrate, 10 mM Hepes, pH 7.4, 298 mOsmol) into a cell suspension. The cell suspension was placed on the cell bank of the Patchliner instrument, and the cells were added to the chip (NPC-16) by the negative pressure controller of the Patchliner instrument, with negative pressure attracting individual cells to the small hole of the chip. After the whole cell model was formed, the instrument generated the hERG current according to the preset hERG current and voltage program, and then the instrument perfused the compound from low concentration to high concentration automatically. HEAK Patchmaster, HEAK EPC10 patch clamp amplifier (Nanion), Pathliner software, and a data analysis software provided by Pathcontrol HTsoftware were used to analyze the current of the compounds at different concentrations and the current of the blank control.
The blocking effect of the compounds of the present invention on hERG potassium current was determined by the above test, and the IC50 values are shown in Table 3.

MOR receptor = molecular target: T3, MOR receptor (Homo sapiens, UniProt P35372); experiment: Activation of the β-arrestin signaling pathway of MOR receptor (CHO-K1 OPRM1 β-Arrestin cells, DiscoveRX); conditions: for Emax: maximum effect of morphine is 100%
T3 construct: host or cells: CHO-K1
T3 sequence (P35372 whole entry): as the sequence (P35372 whole entry) above
Description: The experiment objective is to determine the activity of the compounds of the present invention on activating the β-arrestin signaling pathway of MOR receptor.
The drug was prepared as a 20 mM stock solution that was later diluted with 100% DMSO to a 200×concentration gradient, and then diluted with a 20-fold AssayComplete™ Cell Plating 2 Reagent (93-0563R2B, DiscoveRX) medium. The cell culture plate inoculated on the first day was taken out, and 10 μl of the diluted drug or control (0.5% DMSO) was added to each well. The plate was gently shaken and placed in an incubator at 37° C., 5% CO2 for 90 minutes. Finally, 50 μL of a detection reagent (93-0001, DiscoveRX) were added to each well, and the plate was placed at room temperature for 60 minutes. The absorbance values were measured by the cold light model of a microplate reader (PE, Victor3). The EC50 values of the compounds were calculated by Graphpad Prism software according to each concentration of the compound and the corresponding signal value.

[1] = HEK293/MOR/CRE cells, 5 h incubation, forskolin, read-out: EC50 on agonizing MOR receptor and affecting cAMP levels
[2] = CHO-K1 OPRM1 β-Arrestin cells, 90 minutes, read-out: EC50 on the β-arrestin signaling pathway

SMILES: c1ccc([C@]2(CCN[C@H]3CCOc4ccccc43)CCOC3(CCCC3)C2)nc1 (single isomer, unassigned) [Example 5]
- EC50 (μ-opioid receptors (MOR)): 5 nM
- Emax (μ-opioid receptors (MOR)): 122%
- IC50 (hERG potassium channel): 6200 nM

SMILES: c1ccc([C@]2(CCN[C@@H]3CCOc4ccccc43)CCOC3(CCCC3)C2)nc1 [Example 7, (R)-N-(2-((R)-9-(pyridin-2-yl)-6-oxaspiro[4.5]decan-9-yl)ethyl)chroman-4-amine]
- EC50 (μ-opioid receptors (MOR)): > 10000 nM
- Emax (μ-opioid receptors (MOR)): 0%

SMILES: CCN1CC[C@@H](NCC[C@@]2(c3ccccn3)CCOC3(CCCC3)C2)c2ccccc21 [Example 2, (R)-1-ethyl-N-(2-((R)-9-(pyridin-2-yl)-6-oxaspiro[4.5]decan-9-yl)ethyl)-1,2,3,4-tetrahydroquinolin-4-amine]
- EC50 (μ-opioid receptors (MOR); [1]): > 10000 nM
- Emax (μ-opioid receptors (MOR)): 0%
- EC50 (MOR receptor; [2]): > 10000 nM
- Emax (MOR receptor): 4%

SMILES: COC[C@@H]1CC[C@H](NCC[C@@]2(c3ccccn3)CCOC3(CCCC3)C2)c2ccccc21 [Example 23, (1S,4R)-4-(methoxymethyl)-N-(2-((R)-9-(pyridin-2-yl)-6-oxaspiro[4.5]decan-9-yl)ethyl)-1,2,3,4-tetrahydronaphthalen-1-amine]
- EC50 (μ-opioid receptors (MOR)): 5 nM
- Emax (μ-opioid receptors (MOR)): 120%

SMILES: CO[C@@H]1Cc2ccccc2[C@H]1NCC[C@@]1(c2ccccn2)CCOC2(CCCC2)C1 [Example 4, (1R,2R)-2-methoxy-N-(2-((R)-9-(pyridin-2-yl)-6-oxaspiro[4.5]decan-9-yl)ethyl)-2,3-dihydro-1H-inden-1-amine]
- EC50 (μ-opioid receptors (MOR)): 1 nM
- Emax (μ-opioid receptors (MOR)): 129%

SMILES: O[C@@H]1Cc2ccccc2[C@H]1NCC[C@@]1(c2ccccn2)CCOC2(CCCC2)C1 [Example 3, (1R,2R)-1-((2-((R)-9-(pyridin-2-yl)-6-oxaspiro[4.5]decan-9-yl)ethyl)amino)-2,3-dihydro-1H-inden-2-ol]
- EC50 (μ-opioid receptors (MOR)): 2 nM
- Emax (μ-opioid receptors (MOR)): 124%
- IC50 (hERG potassium channel): > 30000 nM

SMILES: c1ccc([C@]2(CCN[C@H]3CCCc4ccccc43)CCOC3(CCCC3)C2)nc1 [Example 10, (S)-N-(2-((R)-9-(pyridin-2-yl)-6-oxaspiro[4.5]decan-9-yl)ethyl)-1,2,3,4-tetrahydronaphthalen-1-amine]
- EC50 (μ-opioid receptors (MOR)): 4 nM
- Emax (μ-opioid receptors (MOR)): 113%

SMILES: COc1ccsc1CNCC[C@@]1(c2ccccn2)CCOC2(CCCC2)C1 [TRV-130, reference compound]
- IC50 (hERG potassium channel): 1600 nM

SMILES: c1ccc([C@]2(CCN[C@H]3CCC4(OCCO4)c4ccccc43)CCOC3(CCCC3)C2)nc1 [Example 33, (S)-N-(2-((R)-9-(pyridin-2-yl)-6-oxaspiro[4.5]decan-9-yl)ethyl)-3,4-dihydro-2H-spiro[naphthalen-1,2′-[1,3]dioxolane]-4-amine]
- Emax (MOR receptor): 27%

SMILES: Fc1ccc2c(c1)C(NCC[C@@]1(c3ccccn3)CCOC3(CCCC3)C1)CCO2 (stereo partly drawn) [Example 8, 6-fluoro-N-(2-((R)-9-(pyridin-2-yl)-6-oxaspiro[4.5]decan-9-yl)ethyl)chroman-4-amine]
- EC50 (μ-opioid receptors (MOR)): 3 nM
- Emax (μ-opioid receptors (MOR)): 114%

SMILES: CO[C@@H]1CC[C@H](NCC[C@@]2(c3ccccn3)CCOC3(CCCC3)C2)c2ccccc21 [Example 30, (1S,4R)-4-methoxy-N-(2-((R)-9-(pyridin-2-yl)-6-oxaspiro[4.5]decan-9-yl)ethyl)-1,2,3,4-tetrahydronaphthalen-1-amine]
- EC50 (μ-opioid receptors (MOR)): 2 nM
- Emax (μ-opioid receptors (MOR)): 126%

SMILES: c1ccc([C@]2(CCN[C@@H]3CCc4ccccc43)CCOC3(CCCC3)C2)nc1 [Example 15, (R)-N-(2-((R)-9-(pyridin-2-yl)-6-oxaspiro[4.5]decan-9-yl)ethyl)-2,3-dihydro-1H-inden-1-amine]
- EC50 (μ-opioid receptors (MOR)): > 10000 nM
- Emax (μ-opioid receptors (MOR)): 0%

SMILES: c1ccc([C@]2(CCN[C@H]3CCOc4ccccc43)CCOC3(CCCC3)C2)nc1 [Example 6, (S)-N-(2-((R)-9-(pyridin-2-yl)-6-oxaspiro[4.5]decan-9-yl)ethyl)chroman-4-amine]
- EC50 (μ-opioid receptors (MOR)): 1 nM
- Emax (μ-opioid receptors (MOR)): 115%
- IC50 (hERG potassium channel): 3800 nM

SMILES: c1ccc([C@]2(CCN[C@@H]3CCCc4ccccc43)CCOC3(CCCC3)C2)nc1 [Example 9, (R)-N-(2-((R)-9-(pyridin-2-yl)-6-oxaspiro[4.5]decan-9-yl)ethyl)-1,2,3,4-tetrahydronaphthalen-1-amine]
- EC50 (μ-opioid receptors (MOR)): > 10000 nM
- Emax (μ-opioid receptors (MOR)): 48%

SMILES: CCCO[C@H]1CC[C@H](NCC[C@@]2(c3ccccn3)CCOC3(CCCC3)C2)c2ccccc21 [Example 34, (1S,4S)-4-propoxy-N-(2-((R)-9-(pyridin-2-yl)-6-oxaspiro[4.5]decan-9-yl)ethyl)-1,2,3,4-tetrahydronaphthalen-1-amine]
- EC50 (MOR receptor; [2]): 16 nM
- Emax (MOR receptor): 10%

SMILES: O[C@H]1Cc2ccccc2[C@@H]1NCCC1(c2ccccn2)CCOC2(CCCC2)C1 (stereo partly drawn) [Example 18, (1S,2S)-1-((2-(9-(pyridin-2-yl)-6-oxaspiro[4.5]decan-9-yl)ethyl)amino)-2,3-dihydro-1H-inden-2-ol]
- EC50 (μ-opioid receptors (MOR)): > 10000 nM
- Emax (μ-opioid receptors (MOR)): 4%

SMILES: CO[C@H]1Cc2ccccc2[C@@H]1NCC[C@@]1(c2ccccn2)CCOC2(CCCC2)C1 [Example 17, (1S,2S)-2-methoxy-N-(2-((R)-9-(pyridin-2-yl)-6-oxaspiro[4.5]decan-9-yl)ethyl)-2,3-dihydro-1H-inden-1-amine]
- EC50 (μ-opioid receptors (MOR)): > 10000 nM
- Emax (μ-opioid receptors (MOR)): 0%

SMILES: N#CCC1CC[C@H](NCC[C@@]2(c3ccccn3)CCOC3(CCCC3)C2)c2ccccc21 (stereo partly drawn) [Example 32, 2-((4S)-4-((2-((R)-9-(pyridin-2-yl)-6-oxaspiro[4.5]decan-9-yl)ethyl)amino)-1,2,3,4-tetra hydronaphthalen-1-yl)acetonitrile]
- EC50 (μ-opioid receptors (MOR); [1]): 0.8 nM
- Emax (μ-opioid receptors (MOR)): 133%

SMILES: C=C1CC[C@H](NCC[C@@]2(c3ccccn3)CCOC3(CCCC3)C2)c2ccccc21 [Example 28, (S)-4-methylene-N-(2-((R)-9-(pyridin-2-yl)-6-oxaspiro[4.5]decan-9-yl)ethyl)-1,2,3,4-tetrahydronaphthalen-1-amine]
- EC50 (MOR receptor): 15 nM
- Emax (MOR receptor): 22%

SMILES: N#CCO[C@H]1CC[C@H](NCC[C@@]2(c3ccccn3)CCOC3(CCCC3)C2)c2ccccc21 [Example 29, 2-(((1S,4S)-4-((2-((R)-9-(pyridin-2-yl)-6-oxaspiro[4.5]decan-9-yl)ethyl)amino)-1,2,3,4-tetrahydronaphthalen-1-yl)oxy)acetonitrile]
- EC50 (μ-opioid receptors (MOR); [1]): 7 nM
- Emax (μ-opioid receptors (MOR)): 112%
- EC50 (MOR receptor; [2]): 33 nM
- Emax (MOR receptor): 32%
